Experimental data as given in ChEMBL document CHEMBL1150976, “The selectivity of protein kinase inhibitors: a further update” (Biochem J, 2007).

What was measured:
[1] = target: Homeodomain-interacting protein kinase 3 (Homo sapiens) (UniProt Q9H422); assay: Percentage HIPK3 activity remaining in the presence of 0.1uM inhibitor
[2] = target: Serine/threonine-protein kinase PAK 4 (Homo sapiens, UniProt O96013); assay: Percentage PAK4 activity remaining in the presence of 0.01uM inhibitor
[3] = target: Serine/threonine-protein kinase Nek7 (Homo sapiens) (UniProt Q8TDX7); assay: Percentage NEK7 activity remaining in the presence of 0.01uM inhibitor
[4] = target: T1, Serine/threonine-protein kinase Chk1 (Homo sapiens) (UniProt O14757); assay: Percentage CHK1 activity remaining in the presence of 0.01uM inhibitor
T1 sequence (whole entry): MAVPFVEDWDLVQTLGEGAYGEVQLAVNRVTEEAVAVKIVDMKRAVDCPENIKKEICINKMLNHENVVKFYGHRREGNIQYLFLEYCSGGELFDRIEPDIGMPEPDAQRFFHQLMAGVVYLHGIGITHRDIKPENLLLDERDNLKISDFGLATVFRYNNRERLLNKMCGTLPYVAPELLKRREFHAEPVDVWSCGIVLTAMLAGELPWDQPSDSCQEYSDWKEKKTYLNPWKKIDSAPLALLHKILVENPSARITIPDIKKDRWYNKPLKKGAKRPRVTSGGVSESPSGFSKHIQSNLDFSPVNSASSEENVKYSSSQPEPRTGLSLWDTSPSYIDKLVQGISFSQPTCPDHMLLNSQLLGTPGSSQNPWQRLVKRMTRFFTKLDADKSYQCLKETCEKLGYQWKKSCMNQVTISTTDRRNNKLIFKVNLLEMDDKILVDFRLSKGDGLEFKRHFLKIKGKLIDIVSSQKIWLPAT

[5] = target: Serine/threonine-protein kinase Nek6 (Homo sapiens) (UniProt Q9HC98); assay: Percentage NEK6 activity remaining in the presence of 0.01uM inhibitor
[6] = target: Tyrosine-protein kinase CSK (Homo sapiens, UniProt P41240); assay: Percentage CSK activity remaining in the presence of 0.01uM inhibitor
[7] = target: Homeodomain-interacting protein kinase 3 (Homo sapiens) (UniProt Q9H422); assay: Percentage HIPK3 activity remaining in the presence of 0.01uM inhibitor
[8] = target: Rho-associated protein kinase 2 (Homo sapiens) (UniProt O75116); assay: Percentage ROCK2 activity remaining in the presence of 0.01uM inhibitor
[9] = species: Homo sapiens; assay: Percentage PHK activity remaining in the presence of 0.01uM inhibitor
[10] = target: MAP kinase-interacting serine/threonine-protein kinase 2 (Homo sapiens) (UniProt Q9HBH9); assay: Percentage MNK2 activity remaining in the presence of 0.01uM inhibitor
[11] = target: Serine/threonine-protein kinase PAK 5 (Homo sapiens) (UniProt Q9P286); assay: Percentage PAK5 activity remaining in the presence of 0.01uM inhibitor
[12] = target: Ribosomal protein S6 kinase alpha-1 (Homo sapiens) (UniProt Q15418); assay: Percentage RSK1 activity remaining in the presence of 0.01uM inhibitor
[13] = target: Calcium/calmodulin-dependent protein kinase kinase 1 (Homo sapiens) (UniProt Q8N5S9); assay: Percentage CaMKKalpha activity remaining in the presence of 0.01uM inhibitor
[14] = target: Serine/threonine-protein kinase pim-3 (Homo sapiens, UniProt Q86V86); assay: Percentage PIM3 activity remaining in the presence of 0.01uM inhibitor
[15] = target: MAP kinase-activated protein kinase 2 (Homo sapiens) (UniProt P49137); assay: Percentage MAPKAPK2 activity remaining in the presence of 0.01uM inhibitor
[16] = target: Calcium/calmodulin-dependent protein kinase kinase 2 (Homo sapiens) (UniProt Q96RR4); assay: Percentage CaMKKbeta activity remaining in the presence of 0.01uM inhibitor
[17] = target: MAP kinase-activated protein kinase 3 (Homo sapiens) (UniProt Q16644); assay: Percentage MAPKAPK3 activity remaining in the presence of 0.01uM inhibitor
[18] = target: Mitogen-activated protein kinase 14 (Homo sapiens, UniProt Q16539); assay: Percentage p38alpha activity remaining in the presence of 0.01uM inhibitor
[19] = target: Maternal embryonic leucine zipper kinase (Homo sapiens) (UniProt Q14680); assay: Percentage MELK activity remaining in the presence of 0.01uM inhibitor
[20] = target: T2, Inhibitor of nuclear factor kappa-B kinase subunit beta (Homo sapiens) (UniProt O14920); assay: Percentage IKK-beta activity remaining in the presence of 0.01uM inhibitor
T2 sequence (whole entry): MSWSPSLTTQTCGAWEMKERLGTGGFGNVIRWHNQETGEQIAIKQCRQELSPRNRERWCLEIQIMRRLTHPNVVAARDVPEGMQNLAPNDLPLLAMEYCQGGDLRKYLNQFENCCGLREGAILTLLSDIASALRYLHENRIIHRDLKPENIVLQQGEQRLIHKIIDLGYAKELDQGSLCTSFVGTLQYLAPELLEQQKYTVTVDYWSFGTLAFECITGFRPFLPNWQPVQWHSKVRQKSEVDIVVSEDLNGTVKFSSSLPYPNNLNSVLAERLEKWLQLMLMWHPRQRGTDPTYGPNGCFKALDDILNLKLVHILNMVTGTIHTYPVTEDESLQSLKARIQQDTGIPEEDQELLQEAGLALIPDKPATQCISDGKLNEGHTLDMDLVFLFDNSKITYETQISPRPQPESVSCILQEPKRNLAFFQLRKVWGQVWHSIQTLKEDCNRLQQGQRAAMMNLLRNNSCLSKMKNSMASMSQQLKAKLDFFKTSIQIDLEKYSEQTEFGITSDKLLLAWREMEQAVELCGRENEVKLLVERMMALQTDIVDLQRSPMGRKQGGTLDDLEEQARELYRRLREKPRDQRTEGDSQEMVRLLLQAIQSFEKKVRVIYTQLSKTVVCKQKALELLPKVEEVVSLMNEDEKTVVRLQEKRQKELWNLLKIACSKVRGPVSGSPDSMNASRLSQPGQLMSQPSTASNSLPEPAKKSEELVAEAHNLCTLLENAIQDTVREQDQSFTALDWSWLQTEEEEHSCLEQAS

[21] = target: Proto-oncogene tyrosine-protein kinase Src (Gallus gallus) (UniProt P00523); assay: Percentage Src activity remaining in the presence of 0.01uM inhibitor

Sequence of Serine/threonine-protein kinase Nek7 (Homo sapiens) (Q8TDX7 whole entry, looked up): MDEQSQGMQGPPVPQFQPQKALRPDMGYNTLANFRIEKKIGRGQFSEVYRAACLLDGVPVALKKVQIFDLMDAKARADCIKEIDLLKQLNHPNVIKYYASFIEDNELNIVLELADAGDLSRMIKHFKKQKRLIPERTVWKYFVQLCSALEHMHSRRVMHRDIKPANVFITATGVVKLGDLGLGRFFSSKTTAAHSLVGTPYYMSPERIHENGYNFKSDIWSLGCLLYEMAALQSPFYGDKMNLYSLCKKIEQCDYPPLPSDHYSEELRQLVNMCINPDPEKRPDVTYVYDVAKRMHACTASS
Sequence of Tyrosine-protein kinase CSK (P41240 2-450 limits assumed): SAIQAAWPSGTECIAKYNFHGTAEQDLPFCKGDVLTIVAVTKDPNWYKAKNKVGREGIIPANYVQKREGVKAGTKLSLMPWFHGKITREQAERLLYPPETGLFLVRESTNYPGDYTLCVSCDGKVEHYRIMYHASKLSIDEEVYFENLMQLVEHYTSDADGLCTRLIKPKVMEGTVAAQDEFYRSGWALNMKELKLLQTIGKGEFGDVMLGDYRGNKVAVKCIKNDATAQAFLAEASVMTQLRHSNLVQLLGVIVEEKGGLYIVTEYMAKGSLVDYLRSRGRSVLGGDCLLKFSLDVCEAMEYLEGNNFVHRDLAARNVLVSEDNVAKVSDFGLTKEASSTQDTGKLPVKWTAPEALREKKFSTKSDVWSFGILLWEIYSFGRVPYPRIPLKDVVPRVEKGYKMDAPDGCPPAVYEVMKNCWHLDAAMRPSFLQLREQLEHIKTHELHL
Sequence of Serine/threonine-protein kinase PAK 5 (Homo sapiens) (Q9P286 whole entry, looked up): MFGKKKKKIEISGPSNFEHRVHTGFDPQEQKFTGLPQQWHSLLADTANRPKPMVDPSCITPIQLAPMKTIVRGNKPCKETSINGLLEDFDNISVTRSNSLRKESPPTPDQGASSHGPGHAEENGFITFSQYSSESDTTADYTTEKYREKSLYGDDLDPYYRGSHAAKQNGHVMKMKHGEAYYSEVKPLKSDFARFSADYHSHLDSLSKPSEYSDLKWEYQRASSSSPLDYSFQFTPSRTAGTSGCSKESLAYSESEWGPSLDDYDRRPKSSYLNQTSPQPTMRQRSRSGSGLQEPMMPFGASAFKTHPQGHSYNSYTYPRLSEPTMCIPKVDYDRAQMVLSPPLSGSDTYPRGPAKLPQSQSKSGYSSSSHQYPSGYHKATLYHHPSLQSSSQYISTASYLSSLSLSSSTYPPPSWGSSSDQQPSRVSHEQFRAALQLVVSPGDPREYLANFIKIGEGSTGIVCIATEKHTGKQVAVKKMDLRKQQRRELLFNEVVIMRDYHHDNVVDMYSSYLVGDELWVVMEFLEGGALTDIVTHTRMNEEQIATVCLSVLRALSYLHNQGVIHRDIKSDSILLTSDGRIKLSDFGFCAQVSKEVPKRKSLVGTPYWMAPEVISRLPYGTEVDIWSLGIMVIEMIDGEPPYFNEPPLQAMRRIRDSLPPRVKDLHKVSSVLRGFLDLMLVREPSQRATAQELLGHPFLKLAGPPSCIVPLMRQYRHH
Sequence of Calcium/calmodulin-dependent protein kinase kinase 2 (Homo sapiens) (Q96RR4 2-588 limits assumed): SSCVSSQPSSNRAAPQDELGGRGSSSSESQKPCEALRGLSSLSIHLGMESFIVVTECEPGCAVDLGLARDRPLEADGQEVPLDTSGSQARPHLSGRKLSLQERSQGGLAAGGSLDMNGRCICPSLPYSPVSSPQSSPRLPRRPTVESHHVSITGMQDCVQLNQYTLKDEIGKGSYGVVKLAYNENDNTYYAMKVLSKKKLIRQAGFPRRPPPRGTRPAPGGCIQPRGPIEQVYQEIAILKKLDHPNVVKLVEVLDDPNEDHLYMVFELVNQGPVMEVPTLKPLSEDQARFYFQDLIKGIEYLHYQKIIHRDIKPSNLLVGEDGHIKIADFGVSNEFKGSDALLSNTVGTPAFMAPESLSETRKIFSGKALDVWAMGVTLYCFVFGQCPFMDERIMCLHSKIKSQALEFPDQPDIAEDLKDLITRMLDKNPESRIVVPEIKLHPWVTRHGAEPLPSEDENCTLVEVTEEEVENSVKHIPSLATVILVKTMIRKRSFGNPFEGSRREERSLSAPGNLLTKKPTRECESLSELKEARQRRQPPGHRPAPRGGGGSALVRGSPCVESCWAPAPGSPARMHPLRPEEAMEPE
Sequence of Serine/threonine-protein kinase Nek6 (Homo sapiens) (Q9HC98 whole entry): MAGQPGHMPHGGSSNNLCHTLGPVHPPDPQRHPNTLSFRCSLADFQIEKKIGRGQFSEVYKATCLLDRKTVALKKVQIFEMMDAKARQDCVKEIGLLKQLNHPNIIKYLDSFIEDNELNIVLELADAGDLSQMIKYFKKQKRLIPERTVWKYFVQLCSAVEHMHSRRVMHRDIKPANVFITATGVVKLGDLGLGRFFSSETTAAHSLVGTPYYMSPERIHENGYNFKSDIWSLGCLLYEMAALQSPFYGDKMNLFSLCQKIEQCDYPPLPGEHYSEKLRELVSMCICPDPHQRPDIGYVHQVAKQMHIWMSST
Sequence of Rho-associated protein kinase 2 (Homo sapiens) (O75116 whole entry, looked up): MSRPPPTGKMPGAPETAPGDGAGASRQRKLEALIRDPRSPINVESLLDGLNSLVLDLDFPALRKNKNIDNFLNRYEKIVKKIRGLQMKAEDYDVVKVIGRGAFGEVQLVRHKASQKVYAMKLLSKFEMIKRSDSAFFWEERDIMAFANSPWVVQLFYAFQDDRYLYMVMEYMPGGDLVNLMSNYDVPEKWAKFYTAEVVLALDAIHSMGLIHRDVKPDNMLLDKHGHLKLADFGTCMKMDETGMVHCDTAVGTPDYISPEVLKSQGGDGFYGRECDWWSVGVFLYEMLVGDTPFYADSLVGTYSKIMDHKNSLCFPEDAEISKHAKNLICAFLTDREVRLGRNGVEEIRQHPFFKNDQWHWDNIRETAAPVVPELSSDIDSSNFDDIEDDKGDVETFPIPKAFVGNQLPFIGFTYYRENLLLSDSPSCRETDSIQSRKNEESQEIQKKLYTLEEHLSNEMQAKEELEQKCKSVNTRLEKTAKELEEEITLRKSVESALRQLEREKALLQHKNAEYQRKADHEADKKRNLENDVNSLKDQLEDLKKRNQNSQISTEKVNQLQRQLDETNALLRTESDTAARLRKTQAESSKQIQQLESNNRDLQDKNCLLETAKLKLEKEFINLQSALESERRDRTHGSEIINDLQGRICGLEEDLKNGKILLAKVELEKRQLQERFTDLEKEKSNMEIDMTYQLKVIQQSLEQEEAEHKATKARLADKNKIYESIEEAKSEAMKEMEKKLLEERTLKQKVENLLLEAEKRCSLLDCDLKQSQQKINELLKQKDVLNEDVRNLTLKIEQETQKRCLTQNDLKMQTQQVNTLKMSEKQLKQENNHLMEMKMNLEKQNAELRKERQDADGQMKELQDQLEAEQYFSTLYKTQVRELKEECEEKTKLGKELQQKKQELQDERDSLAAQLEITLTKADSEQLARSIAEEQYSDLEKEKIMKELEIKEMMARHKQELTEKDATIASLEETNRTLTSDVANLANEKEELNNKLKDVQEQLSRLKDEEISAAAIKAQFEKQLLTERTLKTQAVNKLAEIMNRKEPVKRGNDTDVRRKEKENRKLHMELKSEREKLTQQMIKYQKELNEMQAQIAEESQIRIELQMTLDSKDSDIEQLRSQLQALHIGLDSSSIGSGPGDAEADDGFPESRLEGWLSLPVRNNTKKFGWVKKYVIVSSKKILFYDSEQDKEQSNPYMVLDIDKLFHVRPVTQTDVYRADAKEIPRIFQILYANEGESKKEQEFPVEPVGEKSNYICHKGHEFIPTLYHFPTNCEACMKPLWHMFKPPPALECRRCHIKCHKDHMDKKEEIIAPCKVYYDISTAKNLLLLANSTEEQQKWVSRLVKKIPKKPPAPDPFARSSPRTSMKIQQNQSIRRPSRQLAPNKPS
Sequence of Homeodomain-interacting protein kinase 3 (Homo sapiens) (Q9H422 whole entry, looked up): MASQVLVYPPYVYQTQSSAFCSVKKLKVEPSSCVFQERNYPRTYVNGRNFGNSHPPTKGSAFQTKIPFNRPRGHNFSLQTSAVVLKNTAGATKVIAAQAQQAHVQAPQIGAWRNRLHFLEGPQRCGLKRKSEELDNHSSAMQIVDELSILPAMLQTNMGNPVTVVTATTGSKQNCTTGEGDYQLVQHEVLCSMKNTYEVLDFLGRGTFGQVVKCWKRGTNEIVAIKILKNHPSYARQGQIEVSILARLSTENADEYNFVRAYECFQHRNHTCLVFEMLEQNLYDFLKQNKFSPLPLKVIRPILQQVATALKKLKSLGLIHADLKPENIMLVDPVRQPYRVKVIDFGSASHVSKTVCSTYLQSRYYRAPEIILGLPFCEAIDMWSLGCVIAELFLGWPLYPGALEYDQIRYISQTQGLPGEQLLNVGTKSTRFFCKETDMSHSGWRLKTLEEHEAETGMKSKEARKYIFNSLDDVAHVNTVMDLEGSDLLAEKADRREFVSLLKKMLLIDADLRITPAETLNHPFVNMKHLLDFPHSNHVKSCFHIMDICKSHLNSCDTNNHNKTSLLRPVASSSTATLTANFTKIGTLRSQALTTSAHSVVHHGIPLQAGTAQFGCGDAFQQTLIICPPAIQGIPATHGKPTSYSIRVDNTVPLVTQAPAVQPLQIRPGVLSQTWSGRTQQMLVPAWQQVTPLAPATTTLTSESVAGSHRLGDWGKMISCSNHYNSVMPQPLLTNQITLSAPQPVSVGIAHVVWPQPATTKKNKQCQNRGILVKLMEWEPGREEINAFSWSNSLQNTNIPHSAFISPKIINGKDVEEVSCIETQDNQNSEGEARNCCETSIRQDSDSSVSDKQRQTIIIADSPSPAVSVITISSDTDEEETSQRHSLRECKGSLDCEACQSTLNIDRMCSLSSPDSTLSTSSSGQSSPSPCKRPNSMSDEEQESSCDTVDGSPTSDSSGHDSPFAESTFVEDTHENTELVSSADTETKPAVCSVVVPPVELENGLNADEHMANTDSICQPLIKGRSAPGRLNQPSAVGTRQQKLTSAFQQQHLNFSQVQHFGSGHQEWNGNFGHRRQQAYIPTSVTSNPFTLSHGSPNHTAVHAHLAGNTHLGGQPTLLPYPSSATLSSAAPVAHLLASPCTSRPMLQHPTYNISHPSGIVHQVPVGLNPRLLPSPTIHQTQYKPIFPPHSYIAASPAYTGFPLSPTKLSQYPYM

SMILES | Activity [1] [%] | Activity [2] [%] | Activity [3] [%] | Activity [4] [%] | Activity [5] [%] | Activity [6] [%] | Activity [7] [%] | Activity [8] [%] | Activity [9] [%] | Activity [11] [%] | Activity [12] [%] | Activity [13] [%] | Activity [14] [%] | Activity [15] [%] | Activity [16] [%] | Activity [17] [%] | Activity [18] [%] | Activity [19] [%] | Activity [20] [%] | Activity [21] [%] | further results
CC(C)CCN1c2nc(Nc3cc(F)c(O)c(F)c3)ncc2N(C)C(=O)C1C (stereo not given) | 104 |  |  |  |  |  |  |  |  |  |  |  |  |  |  |  |  |  |  |  | 
O=C(NCCCNc1nc(Nc2cccc(NC(=O)N3CCCC3)c2)ncc1I)c1cccs1 | 94 | 91 | 111 | 84 | 96 | 114 | 95 | 90 | 94 | 97 | 100 | 86 | 96 | 108 | 82 | 103 | 86 | 95 | 108 | 90 | Activity ([10]; filed as antagonist): 47%
Cc1n[nH]c2ccc(-c3cncc(OC[C@@H](N)Cc4c[nH]c5ccccc45)c3)cc12 | 71 | 99 | 86 | 100 | 95 | 99 | 90 |  | 86 | 104 | 78 | 112 | 54 | 92 | 83 | 91 | 131 | 96 | 93 | 91 | Activity ([8]; filed as antagonist): 48%; Activity [10]: 97%
CN[C@@H]1C[C@H]2O[C@@](C)([C@@H]1OC)n1c3ccccc3c3c4c(c5c6ccccc6n2c5c31)C(=O)N[C@H]4O (stereo in doubt) |  |  | 99 |  | 104 | 80 | 116 | 86 |  |  |  | 58 |  | 75 |  | 107 | 105 | 53 | 86 | 76 | Activity ([2]; filed as antagonist): 33%; Activity ([4]; filed as antagonist): 12%; Activity ([9]; filed as antagonist): 5%; Activity [10]: 103%; Activity ([11]; filed as antagonist): 36%; Activity ([12]; filed as antagonist): 25%; Activity ([14]; filed as antagonist): 8%; Activity ([16]; filed as antagonist): 21%
Cn1cc(C2=C(c3cn(CCCSC(=N)N)c4ccccc34)C(=O)NC2=O)c2ccccc21 | 78 |  |  |  |  |  |  |  |  |  |  |  |  |  |  |  |  |  |  |  | 
Cn1c2ccccc2c2c3c(c4c5ccccc5n(CCC#N)c4c21)CNC3=O | 74 |  |  |  |  |  |  |  |  |  |  |  |  |  |  |  |  |  |  |  | 
